Results as given in patent US11510906B1, “Diazacyclobutene derivatives as anti-parasitic drug substances” (Clemson University, priority 2019, dated 2022).

System: Trypanosoma brucei brucei bloodstream form (BSF) parasites (cell line 90-13, a 427 strain)
Experiment: Parasite viability assay (CellTiter Blue), bloodstream form African trypanosomes
Assay type: cell-based
Conditions: for % BSF Growth Inhibition @ 10 μM: 10 μM compound, 48 hours; for EC50: 48 hours at 37° C., averages of triplicates
Method: To determine the impact of diazacyclobutene derivatives on the growth of African trypanosomes (Trypanosoma brucei brucei) as a representative parasite, bloodstream form (BSF) parasites (cell line 90-13, a 427 strain at 1×10^5 cell/mL) were seeded into 384-well black plates in 40 μL HMI-9 supplemented with 10% fetal bovine serum and 10% Serum Plus (Sigma-Aldrich, St. Louis Mo.) in the presence of compound or equivalently diluted carrier. After 48 hours at 37° C. in 5% CO2, CellTiter Blue (8 μL, Promega, Madison Wis.) was added and the plates incubated an additional 3 hours. Fluorescence emission at A585 was then measured after excitation at A546 on a Synergy H1 Hybrid Reader (Biotek, Winooski Vt.). Averages of triplicates were calculated and fit to dose-response curves using Prism (Graphpad, San Diego Calif.) for the determination of EC50 values.

SMILES	% BSF Growth Inhibition @ 10 μM	EC50
CSc1c(-c2ccccc2)n2c(=O)n(-c3ccccc3)c(=O)n12 [Compound 1]	35.6 ± 1.9%	> 10 µM
CCSc1c(-c2ccccc2)n2c(=O)n(-c3ccccc3)c(=O)n12 [Compound 2]	23.4 ± 5.7%	> 10 µM
CCCSc1c(-c2ccccc2)n2c(=O)n(-c3ccccc3)c(=O)n12 [Compound 3]	96.6 ± 0.3%	5.83 ± 2.2 µM
CCCCSc1c(-c2ccccc2)n2c(=O)n(-c3ccccc3)c(=O)n12 [Compound 4]	80.5 ± 2.1%	> 5 µM
CCCCCSc1c(-c2ccccc2)n2c(=O)n(-c3ccccc3)c(=O)n12 [Compound 5]	98.21 ± 0.17%	2.65 ± 0.16 µM
CCCCCCCCSc1c(-c2ccccc2)n2c(=O)n(-c3ccccc3)c(=O)n12 [Compound 6]	94.71 ± 3.48%	2.04 ± 0.21 µM
O=c1n(-c2ccccc2)c(=O)n2c(-c3ccccc3)c(SCc3ccccc3)n12 [Compound 7]	98.87 ± 2.68%	0.386 ± 0.034 µM
O=c1n(-c2ccccc2)c(=O)n2c(-c3ccccc3)c(Sc3ccccc3)n12 [Compound 8]	11.5 ± 7%	> 10 µM
CSc1c(-c2ccc(C)cc2)n2c(=O)n(-c3ccccc3)c(=O)n12 [Compound 9]	–	> 10 µM
CCSc1c(-c2ccc(C)cc2)n2c(=O)n(-c3ccccc3)c(=O)n12 [Compound 10]	95.2 ± 3.5%	3.66 ± 1.7 µM
COc1ccc(-c2c(SC)n3c(=O)n(-c4ccccc4)c(=O)n23)cc1 [Compound 11]	77.1 ± 3.5%	> 5 µM
CSc1c(-c2ccc(Cl)cc2)n2c(=O)n(-c3ccccc3)c(=O)n12 [Compound 12]	62.2 ± 2.7%	> 5 µM
CSc1c(-c2ccc(C(F)(F)F)cc2)n2c(=O)n(-c3ccccc3)c(=O)n12 [Compound 13]	89.6 ± 2.8%	> 2.5 µM
CCCCc1c(SC)n2c(=O)n(-c3ccccc3)c(=O)n12 [Compound 14]	95.6 ± 1.2%	0.35 ± 0.04 µM
CCCCSc1c(CCCC)n2c(=O)n(-c3ccccc3)c(=O)n12 [Compound 15]	59.2 ± 6.6%	–
C[Se]c1c(-c2ccccc2)n2c(=O)n(-c3ccccc3)c(=O)n12 [Compound 17]	46.1 ± 6.2%	> 10 µM
O=c1n(-c2ccccc2)c(=O)n2c(-c3ccccc3)c([Se]c3ccccc3)n12 [Compound 18]	84.24 ± 8.21%	–
Cc1ccc(S(=O)(=O)N(C)c2c(-c3ccccc3)n3c(=O)n(-c4ccccc4)c(=O)n23)cc1 [Compound 21]	2.5 ± 4.3%	> 10 µM
Cc1ccc(S(=O)(=O)N(C)c2c(-c3ccc(C(F)(F)F)cc3)n3c(=O)n(-c4ccccc4)c(=O)n23)cc1 [Compound 22]	0%	> 10 µM
CSc1c(-c2ccccc2)n2c(=O)n(-c3cccc(Cl)c3)c(=O)n12 [Compound 23]	–	7.08 ± 1.9 µM
COc1cccc(-n2c(=O)n3c(SC)c(-c4ccccc4)n3c2=O)c1 [Compound 25]	–	> 10 µM
